Source: ChEMBL document CHEMBL1811852, “In vitro cytotoxic activity of abietane diterpenes from Peltodon longipes as well as Salvia miltiorrhiza and Salvia sahendica” (Bioorg Med Chem, 2011)

Tests used:
[1] = Cytotoxicity against human MV-3 cells after 24 hrs by MTT assay; type: functional, cell-based; details: MV-3, 24 h
MIA PaCa-2 = assay: Cytotoxicity against human MIAPaCa2 cells after 24 hrs by MTT assay; type: functional, cell-based; details: MIA PaCa-2, 24 h

Compound	IC50 [1]	IC50 (MIA PaCa-2)
COc1c(O)c(C(C)C)cc2c1[C@@]1(C)CCCC(C)(C)[C@@H]1CC2=O	32.3 µM	34.9 µM
CC(C)=CCCc1c(C)ccc2c1C(=O)C=C(C(C)C)C2=O [SAHANDINONE]	–	10.2 µM
CC[C@@]1(O)C(=O)OCc2c1cc1n(c2=O)Cc2cc3ccccc3nc2-1 [CAMPTOTHECIN]	–	0.4 µM
CC(C)c1cc2ccc3c(c2c(O)c1O)C(=O)CCC3(C)C [MILTIODIOL]	–	66.3 µM
CCO[C@@H]1C[C@H]2C(C)(C)CCC[C@]2(C)C2=C1C(=O)C(C(C)C)=C(O)C2=O	> 80 µM	> 100 µM
CC(C)C1=C(O)C(=O)C2=C(C1=O)[C@H](O)C[C@H]1C(C)(C)CCC[C@]21C [HORMINONE]	16.7 µM	27.5 µM
Cc1coc2c1C(=O)C(=O)c1c-2ccc2c(C)cccc12 [TANSHINONE I]	–	10.5 µM
CC(C)C1=Cc2ccc3c(c2C(=O)C1=O)C(=O)CCC3(C)C	–	29.9 µM
CC(C)C1=Cc2ccc3c(c2C(=O)C1=O)CCCC3(C)C [MILTIRONE]	–	22.5 µM
C[C@H]1COC2=C1C(=O)C(=O)c1c2ccc2c1CCCC2(C)C [CRYPTOTANSHINONE]	–	5.8 µM
CC(C)c1cc2c(cc1O)[C@@]1(C)CCCC(C)(C)[C@@H]1CC2 [FERRUGINOL]	–	25.9 µM
CC(C)c1cc2c(cc1O)[C@@]1(C)CCCC(C)(C)[C@@H]1CC2=O [SUGIOL]	34.1 µM	17.9 µM
CC(C)C1=C(O)C(=O)c2c(ccc3c2CCCC3(C)C)C1=O [DEOXYNEOCRYPTOTANSHINONE]	> 150 µM	> 100 µM
COc1c(C(C)C)cc2c(c1O)[C@@]1(C)CCCC(C)(C)[C@@H]1CC2=O [CRYPTOJAPONOL]	> 80 µM	> 100 µM
CC1=CCCc2c1ccc1c2C(=O)C(=O)c2c(C)coc2-1	–	5.6 µM
COc1c(C(C)C)cc2c(c1O)[C@@]1(C)CCCC(C)(C)[C@@H]1[C@@H](O)C2 [IGUESTOL]	65.9 µM	41.3 µM
CC(C)C1=C(O)C(=O)C2=C(C(=O)C[C@H]3C(C)(C)CCC[C@]23C)C1=O	65.8 µM	30.1 µM
Cc1coc2c1C(=O)C(=O)c1c-2ccc2c1CCCC2(C)C [TANSHINONE IIA]	–	1.9 µM
COc1c(O)c2c(c(O)c1C(C)C)C(=O)C[C@H]1C(C)(C)CCC[C@]21C [INUROYLEANOL]	> 120 µM	> 80 µM
COc1c(O)c(C(C)C)c(O)c2c1[C@@]1(C)CCCC(C)(C)[C@@H]1CC2=O [ORTHOSIPHONOL]	> 80 µM	> 100 µM
CC(=O)O[C@@H]1C[C@H]2C(C)(C)CCC[C@]2(C)C2=C1C(=O)C(C(C)C)=C(O)C2=O	7.4 µM	4.7 µM
CC(C)C1=C(O)C(=O)C2=C(CC[C@H]3C(C)(C)CCC[C@]23C)C1=O [ROYLEANONE]	> 80 µM	32.5 µM
